Source: patent publication US11278526B2, “Compounds and methods for treating lupus” (RECEPTOS LLC, priority 2016, dated 2022)

Tests used:
NZBWF1 mice [1] = assay: Survival in NZBWF1 SLE mouse model; assay type: in vivo; details: 0.3, 1.0, 3.0 mg/kg PO QD, Logrank p=0.0229, 0.0308, 0.0201
Method: As in Example 2, compound 5 was tested for efficacy in the same NZB×NZW F1 (“NZBWF1”) mouse model for SLE as compound 148. Six groups of NZBWF1 mice (Jackson Laboratories, stock #100008) were used in the study and were acclimated to the research facility for 6 weeks prior to the start of the study. Weekly measurements of proteinuria (excess serum proteins present in the urine) and body weight began at 20 weeks of age. At 22 weeks of age, the mice were assigned to groups in a balanced manner in order to achieve average body weight and average proteinuria measurements across the groups. One “naive” group consisting of 10 mice was euthanized at the start of treatment and used as a source of tissue for analysis. Treatment began at 22 weeks of age.
The five treatment groups were administered cyclophosphamide (positive control, 20 mice; introduced gradually to reduce toxicity (IP, once a week, 10 mg/kg at Weeks 22 and 23 and 50 mg/kg from Week 24 to the end of the study)), vehicle (negative control, 20 mice), or compound 5 (three groups of 20 mice), beginning at 22 weeks of age and observed over the course of 20 weeks. The three groups dosed with compound 5 received 0.3, 1.0, and 3.0 mg/kg PO QD, respectively (20 mice per dosage). Surviving animals were sacrificed at 42 weeks. […] Disease development was evaluated as disclosed in the following examples.

splenocytes = assay: Splenocyte counts and immunophenotyping of spleen cell subtypes; assay type: in vivo, mice; details: NZBWF1 mice; for Total splenocyte counts relative to vehicle: 42 weeks; for Percent Reduction vs Vehicle: Activated CD4 + T cells / Percent Reduction vs Vehicle: CD4 + T cells / Percent Reduction vs Vehicle: CD8 + T cells / Percent Reduction vs Vehicle: CD11b + Ly6C^hi monocytes / Percent Reduction vs Vehicle: CD19 + B cells / Percent Reduction vs Vehicle: Follicular B cells / Percent Reduction vs Vehicle: Germinal Center B cells / Percent Reduction vs Vehicle: Marginal Zone B cells / Percent Reduction vs Vehicle: Marginal Zone Progenitor B cells / Percent Reduction vs Vehicle: Naive CD4 + T cells / Percent Reduction vs Vehicle: Plasma cells / Percent Reduction vs Vehicle: Tfh cells / Percent Reduction vs Vehicle: Total splenocytes / Percent Reduction vs Vehicle: Treg cells / Percent Reduction vs Vehicle: pDC: spleen
Method: To determine the effects of compound 148 on inflammatory infiltrate in the spleen, spleens were weighed at 42 weeks. […] Splenocyte suspensions were then prepared. RBCs were lysed and splenocytes were counted.
Plasmacytoid dendritic cells (pDC) express IFNAR1 (Interferon alpha receptor 1), which amplifies the proinflammatory response to type 1 interferons (e.g., IFNα) that are associated with lupus. IFNAR activity is considered to be an important modulator of signal strength and duration in pDC and subsequent activation of T and B cells in the inflammatory response. pDC counts were measured at termination.
To determine the effects of compound 5 on inflammatory infiltrate in the spleen, spleens were weighed at 42 weeks. […] Splenocyte suspensions were prepared for all three doses. RBCs were lysed and splenocytes were counted.

[2] = system: CD4+ T cells, CD8+ T cells, and CD19+ B cells; assay: Peripheral lymphocyte counts from whole blood by flow cytometry; assay type: in vivo; details: NZBWF1 mice
Method: Lymphocyte counts were measured from whole blood taken at 23, 31, and 36.5 weeks using flow cytometry. Cells were gated for CD4+ T cells, CD8+ T cells, and CD19+ B cells. […] Serum blood urea nitrogen (BUN) was also measured at termination to assess kidney function.

NZBWF1 mice [3] = assay: Tertiary Lymphatic Tissue (TLT) scoring in kidney histology; assay type: in vivo
Excerpt: To directly assay disease progression, left kidney histology was observed and sections were stained using H&E (left kidney fixed in 4% PFA prior to staining for infiltrating PMN, lymphocytes, and TLTs) or PAS (for analysis of glomerular glycogen and glycoproteins). No neutrophils were observed. The number of aggregates was counted per section.

[4] = system: inflammatory and immune response genes; assay: Kidney mRNA levels of inflammatory and immune response genes (QuantiGene Multiplex Assay); assay type: in vivo; details: NZBWF1 mice; 3 mpk PO; n=5
Method: (§1) As explained above, SLE is characterized by aberrant recognition of healthy “self” tissue as antigenic. The resulting immune response is characterized by inflammation. To measure SLE status, mRNA levels were measured for an array of inflammatory and immune response genes from kidneys collected at termination or week 23 (naïve) and stored in RNAlater (n=5). mRNA was quantified using QuantiGene Multiplex Assay.

profibrotic genes = assay: Kidney mRNA levels of profibrotic genes; assay type: in vivo; details: NZBWF1 mice
Method: as §1
SLE-related inflammation can lead to fibrotic scarring. mRNA levels were measured for an array of profibrotic genes. […] Expression signals of MMP10, IL-2, IL-6, and TNF were also measured, but were below LLOQ (data not shown).

IFNα = assay: Serum IFNα by ELISA; assay type: in vivo; details: NZBWF1 mice; all treatment groups 0.3, 1.0, 3.0 mg/kg PO QD; weeks 23, 29, 36, 42; assay sensitivity 7.48 pg/ml
Method: (§2) As discussed above, IFNAR1 (Interferon alpha receptor 1) and its ligand IFNα are important modulators of lupus-associated autoimmune response in humans. Serum IFNα was measured by ELISA (eBioscience kit) at 23, 29, 36, and 42 weeks (FIG. 17). Assay sensitivity was 7.48 pg/ml (dotted line). […] However, several samples at multiple time points were below the sensitivity of the assay (data not shown), consistent with reports that the NZBWF1 model has a weak IFNα signature. To determine whether compound 148 affected IFNAR1 expression, percent surface expression and MFI expression were measured in pDC cells at termination (FIGS. 18A and 18B, respectively).

IFNAR1 = IFNAR1 expression in splenic pDC cells; assay type: in vivo; details: NZBWF1 mice, at termination, after five months of treatment
Method: as §2

[5] = 3.0 mg/kg PO QD (compound 148 study)

CC(C)Oc1ccc(-c2nc(-c3cccc4c3CC[C@@H]4NCCO)no2)cc1C#N [compound 5, (S)-5-(3-(1-(2-hydroxyethylamino)-2,3-dihydro-1H-inden-4-yl)-1,2,4-oxadiazol-5-yl)-2-isopropoxy benzonitrile]
Survival compared to vehicle (NZBWF1 mice [1]): improved survival compared to vehicle treated animals
Total splenocyte counts relative to vehicle (splenocytes; all groups 0.3, 1.0, 3.0 mg/kg PO QD (compound 5 study)): reduced
Percent Reduction vs Vehicle: Activated CD4 + T cells (splenocytes; 0.3 mg/kg PO QD): 46%
Percent Reduction vs Vehicle: CD4 + T cells (splenocytes; 0.3 mg/kg PO QD): 51%
Percent Reduction vs Vehicle: CD8 + T cells (splenocytes; 0.3 mg/kg PO QD): 46%
Percent Reduction vs Vehicle: CD11b + Ly6C^hi monocytes (splenocytes; 0.3 mg/kg PO QD): −17%
Percent Reduction vs Vehicle: CD19 + B cells (splenocytes; 0.3 mg/kg PO QD): 43%
Percent Reduction vs Vehicle: Follicular B cells (splenocytes; 0.3 mg/kg PO QD): 43%
Percent Reduction vs Vehicle: Germinal Center B cells (splenocytes; 0.3 mg/kg PO QD): 46%
Percent Reduction vs Vehicle: Marginal Zone B cells (splenocytes; 0.3 mg/kg PO QD): 20%
Percent Reduction vs Vehicle: Marginal Zone Progenitor B cells (splenocytes; 0.3 mg/kg PO QD): 75%
Percent Reduction vs Vehicle: Naive CD4 + T cells (splenocytes; 0.3 mg/kg PO QD): 73%
Percent Reduction vs Vehicle: Plasma cells (splenocytes; 0.3 mg/kg PO QD): 50%
Percent Reduction vs Vehicle: Tfh cells (splenocytes; 0.3 mg/kg PO QD): 35%
Percent Reduction vs Vehicle: Total splenocytes (splenocytes; 0.3 mg/kg PO QD): 35%
Percent Reduction vs Vehicle: Treg cells (splenocytes; 0.3 mg/kg PO QD): 37%
Percent Reduction vs Vehicle: pDC (splenocytes; 0.3 mg/kg PO QD): 49%
Percent Reduction vs Vehicle: Activated CD4 + T cells (splenocytes; 1.0 mg/kg PO QD): 72%
Percent Reduction vs Vehicle: CD4 + T cells (splenocytes; 1.0 mg/kg PO QD): 75%
Percent Reduction vs Vehicle: CD8 + T cells (splenocytes; 1.0 mg/kg PO QD): 77%
Percent Reduction vs Vehicle: CD11b + Ly6C^hi monocytes (splenocytes; 1.0 mg/kg PO QD): 34%
Percent Reduction vs Vehicle: CD19 + B cells (splenocytes; 1.0 mg/kg PO QD): 69%
Percent Reduction vs Vehicle: Follicular B cells (splenocytes; 1.0 mg/kg PO QD): 66%
Percent Reduction vs Vehicle: Germinal Center B cells (splenocytes; 1.0 mg/kg PO QD): 57%
Percent Reduction vs Vehicle: Marginal Zone B cells (splenocytes; 1.0 mg/kg PO QD): 63%
Percent Reduction vs Vehicle: Marginal Zone Progenitor B cells (splenocytes; 1.0 mg/kg PO QD): 88%
Percent Reduction vs Vehicle: Naive CD4 + T cells (splenocytes; 1.0 mg/kg PO QD): 91%
Percent Reduction vs Vehicle: Plasma cells (splenocytes; 1.0 mg/kg PO QD): 66%
Percent Reduction vs Vehicle: Tfh cells (splenocytes; 1.0 mg/kg PO QD): 51%
Percent Reduction vs Vehicle: Total splenocytes (splenocytes; 1.0 mg/kg PO QD): 50%
Percent Reduction vs Vehicle: Treg cells (splenocytes; 1.0 mg/kg PO QD): 58%
Percent Reduction vs Vehicle: pDC (splenocytes; 1.0 mg/kg PO QD): 72%
Percent Reduction vs Vehicle: Activated CD4 + T cells (splenocytes; 3.0 mg/kg PO QD): 80%
Percent Reduction vs Vehicle: CD4 + T cells (splenocytes; 3.0 mg/kg PO QD): 81%
Percent Reduction vs Vehicle: CD8 + T cells (splenocytes; 3.0 mg/kg PO QD): 75%
Percent Reduction vs Vehicle: CD11b + Ly6C^hi monocytes (splenocytes; 3.0 mg/kg PO QD): 28%
Percent Reduction vs Vehicle: CD19 + B cells (splenocytes; 3.0 mg/kg PO QD): 74%
Percent Reduction vs Vehicle: Follicular B cells (splenocytes; 3.0 mg/kg PO QD): 72%
Percent Reduction vs Vehicle: Germinal Center B cells (splenocytes; 3.0 mg/kg PO QD): 64%
Percent Reduction vs Vehicle: Marginal Zone B cells (splenocytes; 3.0 mg/kg PO QD): 54%
Percent Reduction vs Vehicle: Marginal Zone Progenitor B cells (splenocytes; 3.0 mg/kg PO QD): 85%
Percent Reduction vs Vehicle: Naive CD4 + T cells (splenocytes; 3.0 mg/kg PO QD): 88%
Percent Reduction vs Vehicle: Plasma cells (splenocytes; 3.0 mg/kg PO QD): 70%
Percent Reduction vs Vehicle: Tfh cells (splenocytes; 3.0 mg/kg PO QD): 68%
Percent Reduction vs Vehicle: Total splenocytes (splenocytes; 3.0 mg/kg PO QD): 60%
Percent Reduction vs Vehicle: Treg cells (splenocytes; 3.0 mg/kg PO QD): 81%
Percent Reduction vs Vehicle: pDC (splenocytes; 3.0 mg/kg PO QD): 68%

CC(C)Oc1ccc(-c2nc(-c3cccc4c3CC[C@@H]4N)no2)cc1C#N [compound 148, (S)-5-(3-(1-amino-2,3-dihydro-1H-inden-4-yl)-1,2,4-oxadiazol-5-yl)-2-isopropoxy-benzonitrile]
Reduction of overall lymphocyte counts relative to vehicle ([2]; whole blood at 23, 31 and 36.5 weeks, all three doses (0.3, 1.0, 3.0 mg/kg PO QD), p<0.05): > 90%
CD4+ T cell and CD8+ T cell counts relative to cyclophosphamide ([2]; whole blood, flow cytometry): Significant reductions
Kidney TLT scores compared to naïve mice (NZBWF1 mice [3]; 1.0 mg/kg or 3.0 mg/kg PO QD): TLT scores similar to naïve mice
Kidney TLT scores relative to vehicle (NZBWF1 mice [3]; 0.3, 1.0, 3.0 mg/kg PO QD, p<0.05, lesser degree than cyclophosphamide): significantly reduced TLT scores relative to vehicle
Total splenocyte counts relative to vehicle (splenocytes; all groups 0.3, 1.0, 3.0 mg/kg PO QD (compound 148 study)): reduced
Decrease of splenic pDC counts relative to vehicle (splenocytes; at termination, 3.0 mg/kg PO QD (compound 148 study)): 62%
Decrease in splenic CD4+ T cell population (splenocytes; [5]): 75%
Decrease in splenic Follicular (FO) B cells (splenocytes; [5]): 79%
Reduction in splenic CD8+ T cell population (splenocytes; [5]): 62%
Reduction in splenic CD19+ B cell population (splenocytes; [5]): 67%
Reduction in splenic Germinal Center (GC) B cell population (splenocytes; [5]): 51%
Reduction in splenic Marginal Zone (MZ) B cell population (splenocytes; [5]): 61%
Reduction in splenic activated CD4+ T cell population (splenocytes; [5]): 75%
Reduction in splenic naïve CD4+ T cells (splenocytes; [5]): 81%
Reduction in splenic plasma cell population (splenocytes; [5]): 30%
Kidney mRNA level of CCL5 relative to control [4]: decreased levels
Kidney mRNA level of CXCL9 relative to control [4]: decreased levels
Kidney mRNA level of CXCL10 relative to control [4]: decreased levels
Kidney mRNA level of IL-1β relative to control [4]: decreased levels
Kidney mRNA level of IL-10 relative to control [4]: decreased levels
Kidney mRNA level of TNFSF13b/BAFF relative to control [4]: decreased levels
mRNA level of Cdcd88a/Girdin relative to control (profibrotic genes; 3 mpk PO): decreased levels
mRNA level of LOXL1 relative to control (profibrotic genes; 3 mpk PO): decreased levels
mRNA level of Lipocalin 2 relative to control (profibrotic genes; 3 mpk PO): decreased levels
mRNA level of TGFβ2 relative to control (profibrotic genes; 3 mpk PO): decreased levels
mRNA level of TIMP1 relative to control (profibrotic genes; 3 mpk PO): decreased levels
mRNA level of Transgelin relative to control (profibrotic genes; 3 mpk PO): decreased levels
IFGBP2 mRNA levels (profibrotic genes; following administration of compound 148): appeared to increase somewhat
Serum IFNα levels compared to vehicle (IFNα): lower serum IFNα levels compared to vehicle
MFI of IFNAR1 expression in pDC cells (IFNAR1): very little difference between the groups
Percent surface expression of IFNAR1 in pDC cells (IFNAR1): very little difference between the groups
